Test results published in paper PMC8881573, “Inhibition of SRP-dependent protein secretion by the bacterial alarmone (p)ppGpp” (Nature Communications, 2022).

Assays:
(Ec)Ffh-NG = target: T1, (Ec)Ffh-NG (Escherichia coli, UniProt P0AGD7); assay: Isothermal titration calorimetry (ITC) of nucleotide binding; design: species or system E. coli
T1 construct: purified NG domains of (Ec)Ffh, (Ec)FtsY and (Bs)Ffh; His6 (C); made in house; host or cells: E. coli BL21 (DE3)
Procedure: Ligands and proteins (purified NG domains of (Ec)Ffh, (Ec)FtsY and (Bs)Ffh) were diluted with a buffer containing 20 mM HEPES-Na (pH 7.5), 200 mM NaCl, 20 mM MgCl2 and 20 mM KCl. The NG domains of (Ec)Ffh, (Ec)FtsY and (Bs)Ffh were titrated in the sample-cell at a nominal concentration of 25 µM each. The nucleotides GDP, GTP, ppGpp and pppGpp (Jena Bioscience, Germany) were placed in the syringe and their concentrations were predetermined by absorbance at 252 nm to saturate the protein samples during the titrations. All the measurements were performed at 25 °C with the instrument MicroCal PEAQ-ITC (©Malvern Panalytical) with a method consisting of 13 injections (first 0.4 µL, and the rest 3 µL each) and 150 s of spacing. The raw data (see source) were processed with the MicroCal PEAQ-ITC Analysis Software (©Malvern Panalytical) using the “one set of sites” models.

SRP/FtsY = target: T2, SRP/FtsY (Escherichia coli, UniProt P0AGD7+P10121); assay: YohP insertion into SecYEG-proteoliposomes with purified SRP/FtsY, proteinase K resistance; type: biochemical, E. coli; conditions: added together with SRP/FtsY (20 ng µL−1 each), 10 µM GTP
T2 construct: (Ec)Ffh (full-length) was concentrated on a 10 kDa centrifugal filter; (Ec)FtsY (full-length) was re-buffered in HT buffer; His-tag; made in house; host or cells: E. coli
Procedure: For protein transport assay, YohP cloned in pET19b was synthesized in vitro using a purified transcription/translation system composed of cytosolic translation factors (CTF) and high salt-washed ribosomes[35],[36]. The ^35S-Methionine/^35S-Cysteine labeling mix was obtained from Perkin Elmer (Wiesbaden, Germany). INVs of E. coli cells were prepared by sucrose gradient centrifugation of cell extracts as described[76] and resuspended in INV buffer (50 mM triethanolamine acetate, pH 7.5, 200 mM sucrose, 1 mM DTT). […] The supernatant containing YohP was then incubated with INV, liposomes or SecYEG-proteoliposomes for 10 min at 37 °C in the presence of 10 µM GTP. […] Next, the samples were denatured at 56 °C for 10 min in 35 μL of TCA loading dye (prepared by mixing one part of solution III (1 M dithiothreitol) with 4 parts of solution II (6.33% (w/v) SDS, 0.083 M Tris, 30% (v/v) glycerol and 0.053% (w/v) bromophenol blue) and 5 parts of solution I (0.2 M Tris, 0.02 M EDTA pH 8)) and analyzed after separation on a modified SDS-PAGE[35] by phosphor imaging. For quantification of YohP insertion, autoradiography samples were analyzed by using the ImageQuant (GE Healthcare) software. […] Mean values and SEM values were determined by using either Excel (Microsoft Corp.) or GraphPad Prism (GraphPad Prism Corp. San Diego). […]

Ffh-NG/FtsY-NG complex = target: T3, Ffh-NG/FtsY-NG complex (Escherichia coli, UniProt P0AGD7+P10121, DEL297-453); assay: Analytical size-exclusion chromatography of GMPPNP-dependent Ffh/FtsY complex formation; type: biochemical, E. coli; conditions: 0.25, 0.5 or 1 mM GMPPNP
T3 construct: purified NG domains of (Ec)FtsY and (Ec)Ffh were diluted; His6 (C); made in house; host or cells: E. coli BL21 (DE3)
Procedure: For the analytical SEC, purified NG domains of (Ec)FtsY and (Ec)Ffh were diluted in a buffer containing 20 mM HEPES (pH 7.5), 200 mM NaCl, 20 mM MgCl2 and 20 mM KCl to a final concentration of 100 µM (Fig. 3g) and 50 µM (Fig. 3h, i) each. Indicated amounts of nucleotides were added simultaneously, and the solution was incubated for 30 min at room temperature. 100 µL were then injected at 4 °C on to a pre-equilibrated S200 300/10 GL analytical size-exclusion column (GE Healthcare, München, Germany) on an Äkta system (UNICORN 7.6; Cytiva). Data has been plotted using GraphPad Prism (GraphPad Prism Corp. San Diego).

[1] = (p)ppGpp concentrations exceeding those of GMPPNP by two-fold
[2] = at equal (p)ppGpp/GMPPNP ratios

T3 sequence (P0AGD7 1-296, stated change not applied): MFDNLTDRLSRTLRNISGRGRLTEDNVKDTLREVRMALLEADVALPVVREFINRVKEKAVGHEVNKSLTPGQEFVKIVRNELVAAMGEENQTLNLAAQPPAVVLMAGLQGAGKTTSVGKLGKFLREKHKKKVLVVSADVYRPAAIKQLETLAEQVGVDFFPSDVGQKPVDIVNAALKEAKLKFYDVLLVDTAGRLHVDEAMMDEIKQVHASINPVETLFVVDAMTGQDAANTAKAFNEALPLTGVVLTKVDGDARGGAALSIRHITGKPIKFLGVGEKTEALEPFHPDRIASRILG
T3 sequence (P10121 197-497, stated change not applied): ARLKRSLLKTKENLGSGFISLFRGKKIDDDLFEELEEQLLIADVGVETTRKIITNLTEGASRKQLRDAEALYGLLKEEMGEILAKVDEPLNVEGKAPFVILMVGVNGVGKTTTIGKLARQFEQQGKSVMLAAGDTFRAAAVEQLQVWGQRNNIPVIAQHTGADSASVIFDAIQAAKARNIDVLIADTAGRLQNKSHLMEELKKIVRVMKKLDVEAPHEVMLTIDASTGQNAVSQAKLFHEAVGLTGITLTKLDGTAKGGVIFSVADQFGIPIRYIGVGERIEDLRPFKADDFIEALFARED
T1 sequence (P0AGD7 1-296): as the sequence (P0AGD7 1-296, stated change not applied) above
T2 sequence (P0AGD7 whole entry): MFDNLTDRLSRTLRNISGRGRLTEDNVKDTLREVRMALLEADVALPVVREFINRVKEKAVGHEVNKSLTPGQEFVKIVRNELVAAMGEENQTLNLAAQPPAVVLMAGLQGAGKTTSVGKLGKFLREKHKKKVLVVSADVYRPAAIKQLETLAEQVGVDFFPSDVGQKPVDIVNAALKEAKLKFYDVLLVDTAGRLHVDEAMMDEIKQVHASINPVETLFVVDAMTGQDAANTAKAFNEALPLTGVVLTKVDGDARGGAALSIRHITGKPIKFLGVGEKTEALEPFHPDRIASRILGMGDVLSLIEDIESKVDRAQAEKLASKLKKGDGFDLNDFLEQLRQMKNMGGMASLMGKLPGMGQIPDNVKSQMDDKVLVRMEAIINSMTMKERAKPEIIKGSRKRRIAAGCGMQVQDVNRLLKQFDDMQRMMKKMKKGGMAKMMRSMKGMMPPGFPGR
T2 sequence (P10121 whole entry): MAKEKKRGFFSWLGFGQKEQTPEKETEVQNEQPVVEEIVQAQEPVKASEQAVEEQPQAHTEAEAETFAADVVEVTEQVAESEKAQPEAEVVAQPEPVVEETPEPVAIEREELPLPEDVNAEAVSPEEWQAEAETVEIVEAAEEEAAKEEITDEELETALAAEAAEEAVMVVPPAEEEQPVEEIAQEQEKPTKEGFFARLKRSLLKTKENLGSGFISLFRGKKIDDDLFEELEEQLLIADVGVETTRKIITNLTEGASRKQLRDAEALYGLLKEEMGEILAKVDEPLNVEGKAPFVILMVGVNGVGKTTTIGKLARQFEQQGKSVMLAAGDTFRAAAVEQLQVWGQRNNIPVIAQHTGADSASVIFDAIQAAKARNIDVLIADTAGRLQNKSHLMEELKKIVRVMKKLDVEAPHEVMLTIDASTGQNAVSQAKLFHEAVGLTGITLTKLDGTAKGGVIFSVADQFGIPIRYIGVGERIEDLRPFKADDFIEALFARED

SMILES: Nc1nc2c(ncn2[C@@H]2O[C@H](COP(=O)(O)OP(=O)(O)O)[C@@H](OP(=O)(O)OP(=O)(O)O)[C@H]2O)c(=O)[nH]1 [ppGpp]
- Kd ((Ec)Ffh-NG): 7.9 ± 1.9 µM
- YohP insertion into SecYEG proteoliposomes (SRP/FtsY): reduced YohP insertion into SecYEG proteoliposomes drastically
- Ffh/FtsY complex formation (Ffh-NG/FtsY-NG complex; [1]): roughly abolished
- Ffh/FtsY complex formation (Ffh-NG/FtsY-NG complex; [2]): half-inhibited

SMILES: Nc1nc2c(ncn2[C@@H]2O[C@H](COP(=O)(O)OP(=O)(O)OP(=O)(O)O)[C@@H](OP(=O)(O)OP(=O)(O)O)[C@H]2O)c(=O)[nH]1 [pppGpp]
- Kd ((Ec)Ffh-NG): 13.9 ± 7.1 µM
- YohP insertion into SecYEG proteoliposomes (SRP/FtsY): reduced YohP insertion into SecYEG proteoliposomes drastically
- Ffh/FtsY complex formation (Ffh-NG/FtsY-NG complex; [1]): roughly abolished
- Ffh/FtsY complex formation (Ffh-NG/FtsY-NG complex; [2]): half-inhibited
